Reference: patent US5041567A, “Antibacterial monic acid derivatives” (Beecham Group plc, priority 1982, dated 1991)
Values after ≈ are worked out from the molar mass of the structure shown.

Legend:
M. suipneumoniae NB12 = test: MIC against mycoplasma in vitro; format: cell-based; conditions: Mesomycoplasma hyopneumoniae, 144 h; M. suipneumoniae NB12; Friis broth, 0.9% agarose, 6 days, 37° C.; read-out: MIC
M. suipneumoniae HK(2) = test: MIC against mycoplasma in vitro; format: cell-based; conditions: Mesomycoplasma hyopneumoniae, 144 h; M. suipneumoniae HK(2); 6 days, 37° C.; read-out: MIC
[1] = system: M. suipneumoniae J2206/183^b; test: MIC against mycoplasma in vitro; format: cell-based; conditions: Mesomycoplasma hyopneumoniae, 144 h; M. suipneumoniae J2206/183^b; 6 days, 37° C.; read-out: MIC
M. suipneumoniae MS 16 = test: MIC against mycoplasma in vitro; format: cell-based; conditions: Mesomycoplasma hyopneumoniae, MS16, 144 h; M. suipneumoniae MS 16; 6 days, 37° C.; read-out: MIC
M. suipneumoniae LABER = test: MIC against mycoplasma in vitro; format: cell-based; conditions: Mesomycoplasma hyopneumoniae, 144 h; M. suipneumoniae LABER; 6 days, 37° C.; read-out: MIC
M. suipneumoniae UCD 1 = test: MIC against mycoplasma in vitro; format: cell-based; conditions: Mesomycoplasma hyopneumoniae, UCD1, 144 h; M. suipneumoniae UCD 1; 6 days, 37° C.; read-out: MIC
M. suipneumoniae TAM 6N = test: MIC against mycoplasma in vitro; format: cell-based; conditions: Mesomycoplasma hyopneumoniae, TAM6N, 144 h; M. suipneumoniae TAM 6N; 6 days, 37° C.; read-out: MIC
[2] = system: M. suipneumoniae ATCC 25095; test: MIC against mycoplasma in vitro; format: cell-based; conditions: Mesomycoplasma hyopneumoniae, ATCC25095, 144 h; M. suipneumoniae ATCC 25095; 6 days, 37° C.; read-out: MIC
M. hyorhinis ATCC 23234 = test: MIC against mycoplasma in vitro; format: cell-based; conditions: Mesomycoplasma hyorhinis, ATCC23234, 144 h; M. hyorhinis ATCC 23234; 6 days, 37° C.; read-out: MIC
M. hyorhinis ATCC 25021 = test: MIC against mycoplasma in vitro; format: cell-based; conditions: Mesomycoplasma hyorhinis, ATCC25021, 144 h; M. hyorhinis ATCC 25021; 6 days, 37° C.; read-out: MIC
[3] = system: M. hyosynoviae ATCC 25591; test: MIC against mycoplasma in vitro; format: cell-based; conditions: 144 h; M. hyosynoviae ATCC 25591; 6 days, 37° C.; read-out: MIC
M. bovis NCTC 10131 = test: microbe, parasite or virus in culture; format: cell-based; conditions: NCTC10131, 144 h
[4] = system: M. bovigenitalium ATCC 14173; test: MIC against mycoplasma in vitro; format: cell-based; conditions: 144 h; M. bovigenitalium ATCC 14173; 6 days, 37° C.; read-out: MIC
P. mirabilis 889 = test: MIC against human bacteria in vitro; format: cell-based; conditions: Proteus mirabilis; P. mirabilis 889; 5% chocolated horse blood agar, 18 hours; read-out: MIC
K. aerogenes A = test: MIC against human bacteria in vitro; format: cell-based; conditions: Klebsiella aerogenes; K. aerogenes A; 5% chocolated horse blood agar, 18 hours; read-out: MIC
[5] = system: Ps. aeruginosa NCTC 10662; test: MIC against human bacteria in vitro; format: cell-based; conditions: Pseudomonas aeruginosa, NCTC10662; Ps. aeruginosa NCTC 10662; 5% chocolated horse blood agar, 18 hours; read-out: MIC
[6] = system: Haemophilus influenzae Wy21; test: MIC against human bacteria in vitro; format: cell-based; conditions: Haemophilus influenzae Wy21; 5% chocolated horse blood agar, 18 hours; read-out: MIC
[7] = system: Neisseria catarrhalis 1502; test: MIC against human bacteria in vitro; format: cell-based; conditions: Neisseria catarrhalis 1502; 5% chocolated horse blood agar, 18 hours; read-out: MIC
[8] = system: Corynebacterium xerosis 9755; test: MIC against human bacteria in vitro; format: cell-based; conditions: Corynebacterium xerosis 9755; 5% chocolated horse blood agar, 18 hours; read-out: MIC
Sarcina lutea 8340 = test: MIC against human bacteria in vitro; format: cell-based; conditions: Micrococcus luteus; Sarcina lutea 8340; 5% chocolated horse blood agar, 18 hours; read-out: MIC
Staph. aureus Russell = test: MIC against human bacteria in vitro; format: cell-based; conditions: Staphylococcus aureus; Staph. aureus Russell; 5% chocolated horse blood agar, 18 hours; read-out: MIC
Staph. aureus W2827 = test: MIC against human bacteria in vitro; format: cell-based; conditions: Staphylococcus aureus; Staph. aureus W2827; 5% chocolated horse blood agar, 18 hours; read-out: MIC
Strep. faecalis I = test: MIC against human bacteria in vitro; format: cell-based; conditions: Enterococcus faecalis; Strep. faecalis I; 5% chocolated horse blood agar, 18 hours; read-out: MIC
Strep. agalactiae 2788-B = test: MIC against human bacteria in vitro; format: cell-based; conditions: Streptococcus agalactiae; Strep. agalactiae 2788-B; 5% chocolated horse blood agar, 18 hours; read-out: MIC
Strep. pneumoniae CN33 = test: MIC against human bacteria in vitro; format: cell-based; conditions: Streptococcus pneumoniae; Strep. pneumoniae CN33; 5% chocolated horse blood agar, 18 hours; read-out: MIC
Bord. bronchiseptica B08 = test: MIC against veterinary bacteria in vitro; conditions: Bordetella bronchiseptica, B08, 18 h
Method: (§1) The activity of the compounds of the Examples against various veterinarily important bacteria, was assayed in vitro using two-fold serial dilutions in Diagnostic Sensitivity Test Agar inoculated with 10^4 organisms.

Bord. bronchiseptica B09 = test: MIC against veterinary bacteria in vitro; conditions: Bordetella bronchiseptica, B09, 18 h
Method: as §1

Past. multocida PA1 = test: MIC against veterinary bacteria in vitro; conditions: Pasteurella multocida, PA1, 18 h
Method: as §1

Past. multocida PA2 = test: MIC against veterinary bacteria in vitro; conditions: Pasteurella multocida, PA2, 18 h
Method: as §1

Past. haemolytica PA5 = test: MIC against veterinary bacteria in vitro; conditions: Mannheimia haemolytica, PA5, 18 h
Method: as §1

[9] = system: Erysipelothrix rhusiopathiae NCTC 8163; test: MIC against veterinary bacteria in vitro; conditions: Erysipelothrix rhusiopathiae, NCTC8163, 18 h
Method: as §1

[10] = system: Corynebacterium pyogenes CY1; test: MIC against veterinary bacteria in vitro; conditions: CY1, 18 h
Method: as §1

[11] = system: Staph. aureus B4 (pen. resistant); test: MIC against veterinary bacteria in vitro; conditions: Staphylococcus aureus, 18 h
Method: as §1

[12] = system: Strep. suis (group D) SPS11; test: MIC against veterinary bacteria in vitro; conditions: Streptococcus suis, 18 h
Method: as §1

Strep. dysgalactiae SPD1 = test: MIC against veterinary bacteria in vitro; conditions: Streptococcus dysgalactiae, SPD1, 18 h
Method: as §1

Row | SMILES | MIC (M. suipneumoniae NB12) [µg/mL] | MIC (M. suipneumoniae HK(2)) [µg/mL] | MIC [1] [µg/mL] | MIC (M. suipneumoniae MS 16) [µg/mL] | MIC (M. suipneumoniae LABER) [µg/mL] | MIC (M. suipneumoniae UCD 1) [µg/mL] | MIC (M. suipneumoniae TAM 6N) [µg/mL] | MIC [2] [µg/mL] | MIC (M. hyorhinis ATCC 23234) [µg/mL] | MIC (M. hyorhinis ATCC 25021) [µg/mL] | MIC [3] [µg/mL] | MIC (M. bovis NCTC 10131) [µg/mL] | MIC [4] [µg/mL] | MIC (P. mirabilis 889) [µg/mL] | MIC (K. aerogenes A) [µg/mL] | MIC [5] [µg/mL] | MIC [6] [µg/mL] | MIC [7] [µg/mL] | MIC [8] [µg/mL] | MIC (Sarcina lutea 8340) [µg/mL] | other results
1 | C/C(=C\c1ncc(-c2ccc([S+](C)[O-])cc2)o1)C[C@@H]1OC[C@H](C[C@@H]2O[C@H]2[C@@H](C)[C@H](C)O)[C@@H](O)[C@H]1O (stereo partly shown) [Example 11, 5-p-Methylsulphinylphenyl-2-(1-normon-2-yl) oxazole A] | 0.1 (≈ 0.198 µM) | 0.25 (≈ 0.494 µM) | 0.25 (≈ 0.494 µM) | 0.1 (≈ 0.198 µM) | 0.1 (≈ 0.198 µM) | 0.25 (≈ 0.494 µM) | 0.5 (≈ 0.989 µM) | 0.25 (≈ 0.494 µM) | 0.1 (≈ 0.198 µM) | 0.1 (≈ 0.198 µM) | 0.25 (≈ 0.494 µM) | ≤ 0.01 | 0.1 (≈ 0.198 µM) | > 128 | > 128 | > 128 | 4 (≈ 7.91 µM) | 8 (≈ 15.8 µM) | > 128 | > 128 | MIC (Staph. aureus Russell): 16 µg/mL (≈ 31.6 µM); MIC (Staph. aureus W2827): 16 µg/mL (≈ 31.6 µM); MIC (Strep. faecalis I): > 128 µg/mL; MIC (Strep. agalactiae 2788-B): 4 µg/mL (≈ 7.91 µM); MIC (Strep. pneumoniae CN33): 4 µg/mL (≈ 7.91 µM); MIC (Bord. bronchiseptica B08): > 80 µg/mL; MIC (Bord. bronchiseptica B09): 40 µg/mL (≈ 79.1 µM); MIC (Past. multocida PA1): 5 µg/mL (≈ 9.89 µM); MIC (Past. multocida PA2): 0.625 µg/mL (≈ 1.24 µM); MIC (Past. haemolytica PA5): 40 µg/mL (≈ 79.1 µM); MIC [9]: > 80 µg/mL; MIC [10]: > 80 µg/mL; MIC [11]: 5 µg/mL (≈ 9.89 µM); MIC [12]: 5 µg/mL (≈ 9.89 µM); MIC (Strep. dysgalactiae SPD1): 1.25 µg/mL (≈ 2.47 µM)
2 | C/C(=C\c1ncc(CCCCCCCC(=O)O)o1)C[C@@H]1OC[C@H](C[C@@H]2O[C@H]2[C@@H](C)[C@H](C)O)[C@@H](O)[C@H]1O [Example 12, Sodium 8-[2-(1-normon-2-yl)-5-oxazolyl]-octanoate A] | > 10 | > 10 | > 10 | 10 | > 10 | > 10 | > 10 | 10 | 5 | 5 | 5 | 0.05 | 1 | > 16 | > 16 | > 16 | 2 | 16 | > 16 | > 16 | MIC (Staph. aureus Russell): 8 µg/mL; MIC (Staph. aureus W2827): 8 µg/mL; MIC (Strep. faecalis I): > 16 µg/mL; MIC (Strep. agalactiae 2788-B): 16 µg/mL; MIC (Strep. pneumoniae CN33): 16 µg/mL; MIC (Bord. bronchiseptica B08): > 40 µg/mL; MIC (Bord. bronchiseptica B09): 20 µg/mL; MIC (Past. multocida PA1): 2.5 µg/mL; MIC (Past. multocida PA2): 0.156 µg/mL; MIC (Past. haemolytica PA5): 40 µg/mL; MIC [9]: > 40 µg/mL; MIC [10]: > 40 µg/mL; MIC [11]: 2.5 µg/mL; MIC [12]: 20 µg/mL; MIC (Strep. dysgalactiae SPD1): 0.625 µg/mL
